In BindingDB's records for doi:10.1021/jm201198w (University of Kentucky, 2012):

Molecular target: Tyrosine-protein kinase SYK (Homo sapiens) (UniProt P43405)
Test: Inhibition of SYK

Ki: 220 nM
SMILES: Nc1nc(Nc2ccc([C@H]3CC[C@H](N4CCOCC4)CC3)cc2)nn1-c1ccccn1
